Data published in US8598168B2 (MethylGene Inc., priority 2006, dated 2013).

How the values were obtained:
[1] = Log D (comparison with previously disclosed compounds); assay type: physicochemical; settings: pH 7.4
[2] = biological target: HDAC-1 (Homo sapiens, UniProt Q13547); assay: Inhibition of Histone Deacetylase Enzymatic (HDAC-1) Activity; assay type: biochemical; settings: Table 21
Protocol: The following protocol was used to assay the compounds of the invention.
The mixture was pre-incubated for 5 minutes at room temperature. The reaction was started by bringing the temperature to 37° C. and adding 15 μl substrate. Total reaction volume was 50 μl.

[3] = test system: human colon cancer HCT116 cells; assay: MTT Assay; assay type: cell-based; settings: HCT-116, 72 hours, Table 21
Protocol: Compounds at various concentrations were added to human colon cancer HCT116 cells plated in 96-well plates. Cells were incubated for 72 hours at 37° C. in 5% CO2 incubator. MTT (3-[4,5-dimethylthiazol-2-yl]-2,5 diphenyl tetrazolium bromide, Sigma) was added at a final concentration of 0.5 mg/ml and incubated with the cells for 4 hours before an equal volume of solubilization buffer (50% N,N-dimethylformamide, 20% SDS, pH 4.7) was added onto cultured cells. After overnight incubation, solubilized dye was quantified by colorimetric reading at […] using a reference at 630 nM. OD values were converted to cell numbers according to a standard growth curve of the relevant cell line. The concentration which reduces cell numbers to 50% of those of DMSO-treated cells is determined as MTT IC50.

[4] = test system: p21 promoter-driven luciferase in HCT116 cells; assay: p21WAF1/Cip1 Assay (p21 promoter-driven luciferase reporter); assay type: cell-based, human; settings: 16 hours treatment, value designated as reference
Protocol: HCT116 cells were stably transfected with reporter plasmids encoding the p21 promoter-driven luciferase. Cells were treated with indicated concentration of HDAC inhibitors for 16 hours before cells were harvested and luciferase activity analyzed. The effective concentration (EC) of MS-275 was designated as 1 μM. The ability of HDAC inhibitor was compared with that of MS-275 (T. Suzuki, et. al J. Med. Chem., 1999, 3001-3003).

HDAC-1, sequence (Q13547 whole entry): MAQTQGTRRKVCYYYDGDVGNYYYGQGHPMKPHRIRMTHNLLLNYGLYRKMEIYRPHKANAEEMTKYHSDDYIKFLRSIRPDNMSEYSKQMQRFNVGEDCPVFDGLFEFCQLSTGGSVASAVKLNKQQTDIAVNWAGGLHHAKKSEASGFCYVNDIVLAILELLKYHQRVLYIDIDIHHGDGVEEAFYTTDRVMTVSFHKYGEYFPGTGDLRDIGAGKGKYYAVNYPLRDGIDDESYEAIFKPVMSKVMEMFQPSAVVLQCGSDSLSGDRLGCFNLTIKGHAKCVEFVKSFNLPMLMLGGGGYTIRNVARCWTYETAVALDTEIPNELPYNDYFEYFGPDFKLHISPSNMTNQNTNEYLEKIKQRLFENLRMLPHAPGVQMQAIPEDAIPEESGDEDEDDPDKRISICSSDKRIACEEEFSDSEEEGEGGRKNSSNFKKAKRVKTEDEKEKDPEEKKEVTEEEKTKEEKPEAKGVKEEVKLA

Row | logD [1] | IC50 [2] [µM] | IC50 [3] [µM] | Compound | effective concentration (EC) to induce p21 expression [4] [µM]
1 | 3.19 | < 1 | < 1 | CCN(CC)Cc1ccc(C(=O)Nc2cc(-c3cccs3)ccc2N)cc1 [compound 79, N-(2-amino-5-(thiophen-2-yl)phenyl)-4-((diethylamino)-methyl)benzamide] | 
2 | 3.2 | < 1 | < 1 | CCN(C)Cc1ccc(C(=O)Nc2cc(-c3cccs3)ccc2N)cc1 [compound 14, N-(2-amino-5-(thiophen-2-yl)phenyl)-4-((ethyl(methyl)amino)methyl)benzamide] | 
3 | 1.94 | < 1 | < 1 | CN(C)[C@H]1CCN(c2ccc(C(=O)Nc3cc(-c4cccs4)ccc3N)cc2)C1 [compound 101, (S)—N-(2-Amino-5-(thiophen-2-yl)phenyl)-4-(3-(dimethylamino)pyrrolidin-1-yl)benzamide] | 
4 | 1.52 | < 1 | < 1 | CC(C)N1CCN(c2ccc(C(=O)Nc3cc(-c4cccs4)ccc3N)cc2)CC1 [compound 102, N-(2-amino-5-(thiophen-2-yl)phenyl)-4-(4-isopropyl-piperazin-1-yl)benzamide] | 
5 | 3.86 | < 1 | 1 to 5 | Nc1ccc(-c2cccs2)cc1NC(=O)c1ccc(CN2CCCCC2)cc1 [compound 12, N-(2-amino-5-(thiophen-2-yl)phenyl)-4-(piperidin-1-ylmethyl)benzamide] | 
6 | 2.51 | < 1 | < 1 | Nc1ccc(-c2cccs2)cc1NC(=O)c1ccc(N2CCC(N3CCOCC3)CC2)cc1 [compound 104, N-(2-amino-5-(thiophen-2-yl)phenyl)-4-(4-morpholino-piperidin-1-yl)benzamide] | 
7 | 2.85 | < 1 | 1 to 5 | CN(C)CCSc1ccc(C(=O)Nc2cc(-c3cccs3)ccc2N)cc1 [compound 106, N-(2-amino-5-(thiophen-2-yl)phenyl)-4-(2-(dimethyl-amino)ethylthio)-benzamide] | 
8 | 1.78 | < 1 | < 1 | COCCN1CCN(c2ccc(C(=O)Nc3cc(-c4cccs4)ccc3N)cc2)CC1 [compound 108, N-(2-amino-5-(thiophen-2-yl)phenyl)-4-(4-(2-methoxyethyl)-piperazin-1-yl)benzamide] | 

Further lines, the compound ahead of its results:

Row | Compound | logD [1] | IC50 [2] [µM] | IC50 [3] [µM] | effective concentration (EC) to induce p21 expression [4] [µM]
9 | CC(=O)N[C@H]1CCN(Cc2ccc(C(=O)Nc3cc(-c4cccs4)ccc3N)cc2)C1 [compound 87, (S)-4-((3-acetamido-pyrrolidin-1-yl)methyl)-N-(2-amino-5-(thiophen-2-yl)phenyl)-benzamide] | 2.15 | < 1 | < 1 | 
10 | CN(C)[C@H]1CC(=O)N(Cc2ccc(C(=O)Nc3cc(-c4cccs4)ccc3N)cc2)C1=O [compound 242, (S)—N-(2-Amino-5-(thiophen-2-yl)phenyl)-4-((3-(dimethylamino)-2,5-dioxopyrrolidin-1-yl)methyl)benzamide] | 1.81 | < 1 | 1 to 5 | 
11 | Nc1ccc(-c2cccs2)cc1NC(=O)c1ccc(CN2CCN(Cc3ccccc3)CC2)cc1 [compound 91, N-(2-amino-5-(thiophen-2-yl)phenyl)-4-((4-benzylpiperazin-1-yl)methyl)-benzamide] | 4.01 | < 1 | < 1 | 
12 | Nc1ccccc1NC(=O)c1ccc(CNC(=O)OCc2cccnc2)cc1 [MS-275] |  |  |  | 1
13 | Nc1ccc(-c2cccs2)cc1NC(=O)c1ccc(CN2CC[C@H](O)C2)cc1 [compound 82, (S)-N-(2-amino-5-(thiophen-2-yl)phenyl)-4-((3-hydroxy-pyrrolidin-1-yl)methyl)-benzamide] | 2.6 | < 1 | < 1 | 
14 | CC(C)N1CCN(Cc2ccc(C(=O)Nc3cc(-c4cccs4)ccc3N)cc2)CC1 [compound 15, N-(2-amino-5-(thiophen-2-yl)phenyl)-4-((4-isopropylpiperazin-1-yl)methyl)benzamide] | 2.15 | < 1 | < 1 | 
